From article PMC3371172 (Chemical biology & drug design, 2012)
Non-standard residues stand in square brackets, D forms with d. Residues, ends and D or L forms follow the SMILES beside them. No end group written: not given here.

Columns and labels:
HUVEC [1] = settings: 20 µM; cited from earlier work
HUVEC [2] = settings: 20 µM; cited from earlier work; remark: listed apart in the source
HUVEC [3] = format: cell-based, human

Compound	inhibition of HUVEC proliferation (HUVEC [1])	inhibition of HUVEC migration (HUVEC [2])	IC50 (HUVEC [3])
LRRFSTMPFMFCNINNVCNF [SP2000]	70%	60%	–
LRRFSTMPFMFININNVINF-NH2 [SP2024]	–	–	7.45 ± 5.7 µM
CC[C@H](C)[C@H](NC(=O)[C@H](CC(N)=O)NC(=O)[C@@H](NC(=O)[C@H](Cc1ccccc1)NC(=O)[C@@H](C)NC(=O)[C@H](Cc1ccccc1)NC(=O)[C@@H]1CCCN1C(=O)[C@H](CCSC)NC(=O)[C@@H](NC(=O)[C@H](CO)NC(=O)[C@H](Cc1ccccc1)NC(=O)[C@H](CCCNC(=N)N)NC(=O)[C@H](CCCNC(=N)N)NC(=O)[C@@H](N)CC(C)C)[C@@H](C)O)[C@@H](C)CC)C(=O)N[C@@H](CC(N)=O)C(=O)N[C@@H](CC(N)=O)C(=O)N[C@H](C(=O)N[C@H](C(=O)N[C@@H](CC(N)=O)C(=O)N[C@@H](Cc1ccccc1)C(N)=O)[C@@H](C)CC)C(C)C [SP2034] (H-LRRFSTMPF[dA]FININNVINF-NH2)	–	–	0.54 ± 0.19 µM
